Test results taken from ChEMBL document CHEMBL1208733, “Benzylisoquinoline alkaloids from the tubers of Corydalis ternata and their cytotoxicity” (Bioorg Med Chem Lett, 2010).

Columns and labels:
Type in all cases: functional, cell-based
SK-MEL-2 = assay: Cytotoxicity against human SK-MEL-2 cells by SRB assay
SK-OV-3 = assay: Cytotoxicity against human SKOV3 cells by SRB assay
HCT-15 = assay: Cytotoxicity against human HCT15 cells by SRB assay
A549 = assay: Cytotoxicity against human A549 cells by SRB assay

With `CN1CCc2cc3c(cc2[C@@H]1Cc1ccc2c(c1C(=O)O)OCO2)OCO3` the IC50 (SK-MEL-2) was over 30 µM, the IC50 (SK-OV-3) was over 30 µM and the IC50 (HCT-15) was 27.8 µM. The IC50 (A549) was over 30 µM.

With `COc1ccc(C[C@@H]2c3cc(O)c(OC)cc3CCN2C)cc1O` [(R)-RETICULINE] the IC50 (SK-MEL-2) was over 30 µM, the IC50 (SK-OV-3) was over 30 µM and the IC50 (HCT-15) was 26.8 µM. It also gave an IC50 (A549) of over 30 µM.

With `COc1ccc(C[C@H]2c3cc(O)c(OC)cc3CCN2C)cc1O` [(S)-RETICULINE] the IC50 (SK-MEL-2) was over 30 µM, the IC50 (SK-OV-3) was over 30 µM and the IC50 (HCT-15) was 29.4 µM. The IC50 (A549) was over 30 µM.

Compound `COc1ccc2cc3[n+](cc2c1OC)CCc1cc2c(cc1-3)OCO2` [BERBERINE CHLORIDE] has an IC50 (SK-MEL-2) of 13.8 µM, an IC50 (SK-OV-3) of 16.4 µM and an IC50 (HCT-15) of 16.6 µM. It also gave an IC50 (A549) of 6.27 µM.

`COc1cc2c(cc1O)C1Cc3ccc4c(c3CN1CC2)OCO4` (stereo not given) [CHEILANTHIFOLINE] was tested, and the IC50 (SK-MEL-2) was 22.2 µM, the IC50 (SK-OV-3) was 27.4 µM and the IC50 (HCT-15) was 29.8 µM. For the same compound, the IC50 (A549) was 20.6 µM.

Work on `c1c2c(cc3c1OCO3)-c1cc3ccc4c(c3c[n+]1CC2)OCO4` [COPTISINE CHLORIDE] yielded an IC50 (SK-MEL-2) of over 30 µM, an IC50 (SK-OV-3) of over 30 µM and an IC50 (HCT-15) of 29.1 µM. It also gave an IC50 (A549) of 24 µM.

Compound `COc1cc2c(cc1OC)C1Cc3ccc(O)c(OC)c3CN1CC2` (stereo not given) [CORYDALMINE] has an IC50 (SK-MEL-2) of 27.2 µM, an IC50 (SK-OV-3) of 28.5 µM and an IC50 (HCT-15) of 26.4 µM. For the same compound, the IC50 (A549) was over 30 µM.

`O=C(O)c1c(C[C@@H]2NCCc3cc4c(cc32)OCO4)ccc2c1OCO2` [CORYTERNATINE A] showed an IC50 (SK-MEL-2) of over 30 µM, an IC50 (SK-OV-3) of over 30 µM and an IC50 (HCT-15) of 23.3 µM. For the same compound, the IC50 (A549) was over 30 µM.

Work on `COc1ccc(C[C@@H]2NCCc3cc4c(cc32)OCO4)c(C(=O)O)c1OC` [CORYTERNATINE B] yielded an IC50 (SK-MEL-2) of over 30 µM, an IC50 (SK-OV-3) of over 30 µM and an IC50 (HCT-15) of 24.6 µM. The IC50 (A549) was over 30 µM.

With `COc1ccc(C[C@H]2NCCc3cc4c(cc32)OCO4)c(C(=O)O)c1OC` [CORYTERNATINE C] the IC50 (SK-MEL-2) was over 30 µM, the IC50 (SK-OV-3) was over 30 µM and the IC50 (HCT-15) was 27.6 µM. The IC50 (A549) was over 30 µM.

In the case of `COc1cc2c(cc1OC)C1Cc3ccc(O)c(O)c3CN1CC2` (stereo not given) [DEMETHYLCORYDALMINE], the IC50 (SK-MEL-2) is reported as 7.87 µM, the IC50 (SK-OV-3) is reported as 5.14 µM and the IC50 (HCT-15) is reported as 2.86 µM. The IC50 (A549) was 8.34 µM.

With `COc1cccc2c1C(=O)c1c(O)c3c(c(O)c1C2=O)C[C@@](O)(C(=O)CO)C[C@@H]3O[C@H]1C[C@H](N)[C@H](O)[C@H](C)O1` [DOXORUBICIN] the IC50 (SK-MEL-2) was 0.012 µM, the IC50 (SK-OV-3) was 0.003 µM and the IC50 (HCT-15) was 0.038 µM.

Work on `COc1ccc2c(c1OC)CN1CCc3cc4c(cc3C1C2)OCO4` (stereo not given) [TETRAHYDROBERBERINE] yielded an IC50 (SK-MEL-2) of 27.9 µM, an IC50 (SK-OV-3) of over 30 µM and an IC50 (HCT-15) of over 30 µM. It also gave an IC50 (A549) of over 30 µM.

Work on `COc1c(O)ccc2cc3[n+](cc12)CCc1cc2c(cc1-3)OCO2` [THALIFENDINE] yielded an IC50 (SK-MEL-2) of 25.7 µM, an IC50 (SK-OV-3) of over 30 µM and an IC50 (HCT-15) of over 30 µM. It also gave an IC50 (A549) of 28.3 µM.
